Test results as given in US5677325A, “4-imidazolidinone compound” (Adir Et Compagnie, priority 1995, dated 1997).
Values joined by “and” are separate entries in the source; they are usually repeats but may differ in a detail not shown here. Equal values may be shown once.

Legend:
glycine B site = target: T1, glycine B site (Rattus norvegicus, UniProt P35439); assay: Binding of [^3 H]-glycine to rat brain membranes (glycine B site); design: species or system rat (Wistar); details: [^3 H]-glycine 10 nM, 20 minutes at 4° C., concentration inhibiting radioligand binding by 50%
T1 construct: from tissue; host or cells: rat brain without cerebellum (Wistar males), Triton-treated membranes
Method: (§1) Preparation of the membranes (according to Yoneda et al., J. Neurochem., 55, 1, 237-244, 1990)
(§2) The membranes are prepared and used in the same way for both radioligands. The buffers are prepared with sterile Milli-Q water (Millipore) which is deionized and filtered, just before use, on a nitrocellulose filter (0.45 μm).
(§3) After dissection, the brains from rats (Wistar males, 240-260 g), freed from the cerebellum, are placed in an ice-cold buffer comprising Tris-acetate (1 mM), EGTA (1 mM) and sucrose (320 mM) at pH 7. The brains are milled and then homogenized using a polytron. The suspension is centrifuged for 10 minutes at 1000 g and the supernatent containing the membranes is recovered and recentrifuged for 20 minutes at 35000 g. The pellet, freed from a brown ring, is recovered in a lysis buffer comprising Tris-acetate (1 mM) and EGTA (1 mM) at pH 8. The suspension is then left for 15 minutes at 4° C. and is then centrifuged for 20 minutes at 35000 g. The pellet is recovered in a Tris-acetate (50 mM) buffer at pH 7.4 containing 0.08% Triton and left for 30 minutes at 4° C.
(§4) After two successive centrifugings, the pellet is taken up in Tris-acetate (50 mM) buffer at pH 7.4, divided into aliquots and stored at -80° C. On the day of the experiment, at most 3 weeks after the preparation, the membranes are washed twice with Tris-acetate (50 mM) buffer at pH 7.4.
(§5) Binding experiments (according to Yoneda et al., J. Neurochem., 60, 2, 634-645, 1993)
(§6) The free and bound radioligands are separated on GF/B filters, preimpregnated with PEI (0.1%), using a Brandle filtration device. […] Each filter is rinsed 3 times. The radioactivity is measured using a β-counter (Tricarb 1500, Packard) and expressed in dpm. The curves obtained are analyzed using GraphPad Prism software (non-linear regression).

NMDA channel = assay: Binding of [^3 H]-MK 801 to rat brain membranes (NMDA channel), stimulation or inhibition; design: species or system rat (Wistar); details: for ME (maximum effect) on [^3 H]-MK 801 binding: with respect to a base of 0%, + = stimulation, - = inhibition; for activity at glycine B receptor (in words): agonist character; for IC50: read-out: IC50, [^3 H]-MK 801 binding, [^3 H]-MK 801 1 nM, 120 minutes at 20° C., antagonists
Method: as §1, §2, §3, §4, §5, §6
The opening of the channel of the NMDA receptor complex is modulated positively by the glycinergic site.

Row | SMILES | IC50 (glycine B site) | IC50 (glycine B site; listed as compound of the invention) [µM] | ME (maximum effect) on [^3 H]-MK 801 binding (NMDA channel; at 10 μM) | ME (maximum effect) on [^3 H]-MK 801 binding (NMDA channel; at 10 μM, listed as compound of the invention) [%] | activity at glycine B receptor (in words) (NMDA channel; qualitative, listed as compound of the invention) | activity at glycine B receptor (in words) (NMDA channel; qualitative, listed as compound of the present invention) | effect on binding of [^3 H]-MK 801 (in words) (NMDA channel; rat brain membranes, qualitative) | ME (maximum effect) on [^3 H]-MK 801 binding (NMDA channel; at 1 μM) [%] | IC50 (NMDA channel) [µM] | ME (maximum effect) on [^3 H]-MK 801 binding (NMDA channel; at 100 μM) [%]
1 | O=C1CNCN1O [Example 1, 3-Hydroxy-4-imidazolidinone] | 6.81 ± 0.545 µM | 6.8 | +46 ± 3% | 46 | behaves as an agonist | powerful partial agonist | stimulates the binding of [^3 H]-MK 801 |  |  | 
2 | O=c1[nH]c2cc(Cl)ccc2c(O)c1-c1cccc(Oc2ccccc2)c1 [L 701,324] | 0.026 µM and ~0.026 µM |  |  |  |  |  |  | -91 ± 3 | 0.022 | 
3 | N[C@@H]1CCN(O)C1=O [(+)-HA966] | 7.3 µM |  |  |  |  |  |  |  | 6.73 | -85 ± 7
